This is an account of results in US10968222B2, “2-azabicyclo hexane JAK inhibitor compound” (THERAVANCE BIOPHARMA R&D IP, LLC, priority 2018, dated 2021).

The subject of test [1] is IL-2/anti-CD3 stimulated IFNγ in human PBMCs. The experiment in a line: Inhibition of IL-2/anti-CD3 stimulated IFNγ in human PBMCs. Type of test: cell-based. The settings on record: PBMC, 24 h stimulation, ELISA, read-out: pIC50, inhibition of IL-2/anti-CD3 stimulated IFNγ (converted). Here is the method:
The potency of the test compound for inhibition of interleukin-2 (IL-2)/anti-CD3 stimulated interferon gamma (IFNγ) was measured in human peripheral blood mononuclear cells (PBMCs) isolated from human whole blood (Stanford Blood Center). Because IL-2 signals through JAK, this assay provides a measure of JAK cellular potency.
(1) Human peripheral blood mononuclear cells (PBMC) were isolated from human whole blood of healthy donors using a ficoll gradient. Cells were cultured in a 37° C., 5% CO2 humidified incubator in RPMI (Life Technologies) supplemented with 10% Heat Inactivated Fetal Bovine Serum (FBS, Life Technologies), 2 mM Glutamax (Life Technologies), 25 mM HEPES (Life Technologies) and 1× Pen/Strep (Life Technologies). Cells were seeded at 200,000 cells/well in media (50 μL) and cultured for 1 h. The compound was serially diluted in DMSO and then diluted another 500-fold (to a 2× final assay concentration) in media. […]
(2) After cytokine stimulation, cells were centrifuged at 500 g for 5 min and supernatants removed and frozen at −80° C. To determine the inhibitory potency of test compounds in response to IL-2/anti-CD3, supernatant IFNγ concentrations were measured via ELISA (R&D Systems). IC50 values were determined from analysis of the inhibition curves of concentration of IFNγ vs compound concentration. Data are expressed as pIC50 (negative decadic logarithm IC50) values.
For orientation: ELISA stands for enzyme-linked immunosorbent assay.

Test [2] has as its target T1, CDK2 (Homo sapiens, UniProt P24941).
T1 construct: made in house; host or cells: E. coli BL21-derived host (T7 phage) or HEK-293 cells
Briefly: Kinome screen, CDK2. It is filed as binding. The settings on record: screened at 1 μM. Here is the method: (§1) Compounds 1 and C-1 were screened against other kinases to evaluate their selectivity profile.
(§2) Kinase-tagged T7 phage strains were grown in parallel in 24-well blocks in an E. coli host derived from the BL21 strain. E. coli were grown to log-phase and infected with T7 phage from a frozen stock (multiplicity of infection=0.4) and incubated with shaking at 32° C. until lysis (90-150 minutes). The lysates were centrifuged (6,000×g) and filtered (0.2 μm) to remove cell debris. The remaining kinases were produced in HEK-293 cells and subsequently tagged with DNA for qPCR detection.
(§3) Streptavidin-coated magnetic beads were treated with biotinylated small molecule ligands for 30 minutes at room temperature to generate affinity resins for kinase assays. The liganded beads were blocked with excess biotin and washed with blocking buffer (SeaBlock (Pierce), 1% BSA, 0.05% Tween 20, 1 mM DTT) to remove unbound ligand and to reduce non-specific phage binding. Binding reactions were assembled by combining kinases, liganded affinity beads, and test compounds in 1× binding buffer (20% SeaBlock, 0.17×PBS, 0.05% Tween 20, 6 mM DTT). Test compounds were prepared as 40× stocks in 100% DMSO and directly diluted into the assay. All reactions were performed in polypropylene 384-well plates in a final volume of 0.04 ml. […] The kinase concentration in the eluates was measured by qPCR. […]

Test [3] deals with T2, KIT (Homo sapiens, UniProt P10721).
T2 construct: made in house; host or cells: E. coli BL21-derived host (T7 phage) or HEK-293 cells
T2 sequence (P10721 26-976): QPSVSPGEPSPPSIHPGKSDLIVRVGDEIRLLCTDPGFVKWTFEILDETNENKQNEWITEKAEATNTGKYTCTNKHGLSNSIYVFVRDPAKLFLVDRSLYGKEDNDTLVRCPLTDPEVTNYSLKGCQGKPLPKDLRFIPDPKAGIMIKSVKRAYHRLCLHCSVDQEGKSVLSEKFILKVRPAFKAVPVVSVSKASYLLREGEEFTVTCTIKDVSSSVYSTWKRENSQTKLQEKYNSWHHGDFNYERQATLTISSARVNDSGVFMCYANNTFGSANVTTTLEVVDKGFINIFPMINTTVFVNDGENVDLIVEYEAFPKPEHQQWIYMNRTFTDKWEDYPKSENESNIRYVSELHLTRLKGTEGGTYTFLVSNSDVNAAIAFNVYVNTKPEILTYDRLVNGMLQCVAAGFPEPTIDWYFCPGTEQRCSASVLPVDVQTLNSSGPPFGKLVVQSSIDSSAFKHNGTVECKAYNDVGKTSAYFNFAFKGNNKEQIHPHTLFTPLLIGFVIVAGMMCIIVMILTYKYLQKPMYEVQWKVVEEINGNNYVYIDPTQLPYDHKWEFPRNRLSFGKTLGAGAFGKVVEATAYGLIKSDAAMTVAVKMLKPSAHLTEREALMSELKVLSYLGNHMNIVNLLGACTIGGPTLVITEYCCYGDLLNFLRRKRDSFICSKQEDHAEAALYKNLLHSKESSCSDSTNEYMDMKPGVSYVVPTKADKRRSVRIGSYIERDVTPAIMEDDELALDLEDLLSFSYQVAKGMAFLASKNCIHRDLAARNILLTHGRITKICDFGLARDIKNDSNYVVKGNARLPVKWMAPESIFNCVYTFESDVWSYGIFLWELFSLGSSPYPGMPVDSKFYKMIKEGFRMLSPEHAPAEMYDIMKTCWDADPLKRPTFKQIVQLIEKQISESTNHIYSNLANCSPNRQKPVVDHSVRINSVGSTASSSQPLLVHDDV
Briefly: Kinome screen, KIT. Type of test: binding. The settings on record: screened at 1 μM. Here is the method:
as §1, §2, §3

The target of test [4] is T3, Tyk2 (Homo sapiens, UniProt P29597).
T3 construct: GST; purchased Life Technologies
T3 sequence (P29597 whole entry): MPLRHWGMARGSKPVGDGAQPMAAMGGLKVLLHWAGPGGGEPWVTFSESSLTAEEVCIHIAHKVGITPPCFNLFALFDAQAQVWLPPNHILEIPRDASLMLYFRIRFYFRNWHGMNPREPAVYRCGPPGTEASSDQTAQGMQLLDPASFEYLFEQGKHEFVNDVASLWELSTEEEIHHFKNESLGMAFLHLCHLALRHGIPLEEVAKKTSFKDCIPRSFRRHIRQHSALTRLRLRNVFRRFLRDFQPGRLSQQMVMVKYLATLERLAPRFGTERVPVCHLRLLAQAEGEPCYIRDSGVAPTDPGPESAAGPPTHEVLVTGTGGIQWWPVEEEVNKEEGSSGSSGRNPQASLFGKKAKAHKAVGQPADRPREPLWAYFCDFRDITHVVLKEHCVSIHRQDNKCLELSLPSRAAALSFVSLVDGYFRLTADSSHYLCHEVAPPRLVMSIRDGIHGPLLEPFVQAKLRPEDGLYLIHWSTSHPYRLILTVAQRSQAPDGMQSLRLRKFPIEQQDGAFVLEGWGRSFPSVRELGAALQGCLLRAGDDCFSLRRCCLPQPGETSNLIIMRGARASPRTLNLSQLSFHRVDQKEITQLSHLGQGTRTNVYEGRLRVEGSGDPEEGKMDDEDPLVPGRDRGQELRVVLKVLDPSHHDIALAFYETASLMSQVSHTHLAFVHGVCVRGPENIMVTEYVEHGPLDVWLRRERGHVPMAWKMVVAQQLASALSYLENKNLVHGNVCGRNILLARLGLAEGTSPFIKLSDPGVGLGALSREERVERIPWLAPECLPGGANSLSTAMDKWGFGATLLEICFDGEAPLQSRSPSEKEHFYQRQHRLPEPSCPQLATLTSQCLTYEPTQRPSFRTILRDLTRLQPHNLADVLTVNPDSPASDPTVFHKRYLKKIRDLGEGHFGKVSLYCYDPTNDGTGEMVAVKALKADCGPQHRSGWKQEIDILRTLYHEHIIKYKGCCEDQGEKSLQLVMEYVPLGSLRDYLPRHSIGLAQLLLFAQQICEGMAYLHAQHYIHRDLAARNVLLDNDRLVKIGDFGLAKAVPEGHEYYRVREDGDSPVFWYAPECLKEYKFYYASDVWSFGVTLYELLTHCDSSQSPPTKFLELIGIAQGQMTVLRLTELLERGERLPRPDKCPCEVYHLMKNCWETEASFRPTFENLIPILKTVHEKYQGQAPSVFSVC
Briefly: Biochemical JAK kinase assay (LanthaScreen), Tyk2. The settings on record: converted from pIC50 by Cheng-Prusoff; 10 μM ATP; read-out: Tyk 2 pKi (converted). Here is the method:
(§4) A panel of four LanthaScreen JAK biochemical assays (JAK1, 2, 3 and Tyk2) were carried in a common kinase reaction buffer (50 mM HEPES, pH 7.5, 0.01% Brij-35, 10 mM MgCl2, and 1 mM EGTA). Recombinant GST-tagged JAK enzymes and a GFP-tagged STAT1 peptide substrate were obtained from Life Technologies.
(§5) Serially diluted compound was pre-incubated with each of the four JAK enzymes and the substrate in white 384-well microplates (Corning) at ambient temperature for 1 h. ATP was subsequently added to initiate the kinase reactions in 10 μL total volume, with 1% DMSO. […] The plates were allowed to incubate at ambient temperature for 1 h before being read on the EnVision reader (Perkin Elmer). Emission ratio signals (520 nm/495 nm) were recorded and utilized to calculate the percent inhibition values based on DMSO and background controls.
(§6) For dose-response analysis, percent inhibition data were plotted vs. compound concentrations, and IC50 values were determined from a 4-parameter robust fit model with the Prism software (GraphPad Software). Results were expressed as pIC50 (negative logarithm of IC50) and subsequently converted to pKi (negative logarithm of dissociation constant, Ki) using the Cheng-Prusoff equation.

Test [5] deals with T4, PKAC-ALPHA (Homo sapiens, UniProt P17612).
T4 construct: made in house; host or cells: E. coli BL21-derived host (T7 phage) or HEK-293 cells
Briefly: Kinome screen, PKAC-ALPHA. The note with it: screened at 1 μM. It is filed as binding. Here is the method: as §1, §2, §3

Test [6] has as its target T5, PAK4 (Homo sapiens, UniProt O96013).
T5 construct: made in house; host or cells: E. coli BL21-derived host (T7 phage) or HEK-293 cells
Briefly: Kinome screen, PAK4. It is filed as binding. The settings on record: screened at 1 μM. Here is the method:
as §1, §2, §3

For test [7], the target named is T6, VEGFR2 (Homo sapiens, UniProt P35968).
T6 construct: made in house; host or cells: E. coli BL21-derived host (T7 phage) or HEK-293 cells
Briefly: Kinome screen, VEGFR2. Type of test: binding. The settings on record: screened at 1 μM. Here is the method: as §1, §2, §3

Test [8] concerns the target T7, EPHB6 (Homo sapiens, UniProt O15197).
T7 construct: made in house; host or cells: E. coli BL21-derived host (T7 phage) or HEK-293 cells
The experiment in a line: Kinome screen, EPHB6. It is filed as binding. The settings on record: screened at 1 μM. Here is the method:
as §1, §2, §3

Test [9] addresses T8, JAK1 (Homo sapiens, UniProt P23458).
T8 construct: GST; purchased Life Technologies
The experiment in a line: Biochemical JAK kinase assay (LanthaScreen), JAK1. The settings on record: converted from pIC50 by Cheng-Prusoff; 25 μM ATP; read-out: JAK 1 pKi (converted). Here is the method:
as §4, §5, §6
For orientation: In TR-FRET formats the signal depends on donor and acceptor labels being close together.

The target in test [10] is T9, CSNK1D (Homo sapiens, UniProt P48730).
T9 construct: made in house; host or cells: E. coli BL21-derived host (T7 phage) or HEK-293 cells
T9 sequence (P48730 whole entry): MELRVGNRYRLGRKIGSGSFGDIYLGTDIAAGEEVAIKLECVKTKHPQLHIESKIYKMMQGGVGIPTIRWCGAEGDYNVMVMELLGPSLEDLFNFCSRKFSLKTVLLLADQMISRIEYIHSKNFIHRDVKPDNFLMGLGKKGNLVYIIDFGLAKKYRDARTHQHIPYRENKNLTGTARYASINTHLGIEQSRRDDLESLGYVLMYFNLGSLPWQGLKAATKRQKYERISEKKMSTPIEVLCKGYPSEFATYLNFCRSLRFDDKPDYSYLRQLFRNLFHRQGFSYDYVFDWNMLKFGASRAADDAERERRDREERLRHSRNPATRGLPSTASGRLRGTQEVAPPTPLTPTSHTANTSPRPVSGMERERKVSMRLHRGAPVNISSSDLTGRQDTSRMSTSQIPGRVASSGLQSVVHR
Briefly: Kinome screen, CSNK1D. The settings on record: screened at 1 μM. Type of test: binding. Here is the method:
as §1, §2, §3

T7 sequence (O15197 32-1021): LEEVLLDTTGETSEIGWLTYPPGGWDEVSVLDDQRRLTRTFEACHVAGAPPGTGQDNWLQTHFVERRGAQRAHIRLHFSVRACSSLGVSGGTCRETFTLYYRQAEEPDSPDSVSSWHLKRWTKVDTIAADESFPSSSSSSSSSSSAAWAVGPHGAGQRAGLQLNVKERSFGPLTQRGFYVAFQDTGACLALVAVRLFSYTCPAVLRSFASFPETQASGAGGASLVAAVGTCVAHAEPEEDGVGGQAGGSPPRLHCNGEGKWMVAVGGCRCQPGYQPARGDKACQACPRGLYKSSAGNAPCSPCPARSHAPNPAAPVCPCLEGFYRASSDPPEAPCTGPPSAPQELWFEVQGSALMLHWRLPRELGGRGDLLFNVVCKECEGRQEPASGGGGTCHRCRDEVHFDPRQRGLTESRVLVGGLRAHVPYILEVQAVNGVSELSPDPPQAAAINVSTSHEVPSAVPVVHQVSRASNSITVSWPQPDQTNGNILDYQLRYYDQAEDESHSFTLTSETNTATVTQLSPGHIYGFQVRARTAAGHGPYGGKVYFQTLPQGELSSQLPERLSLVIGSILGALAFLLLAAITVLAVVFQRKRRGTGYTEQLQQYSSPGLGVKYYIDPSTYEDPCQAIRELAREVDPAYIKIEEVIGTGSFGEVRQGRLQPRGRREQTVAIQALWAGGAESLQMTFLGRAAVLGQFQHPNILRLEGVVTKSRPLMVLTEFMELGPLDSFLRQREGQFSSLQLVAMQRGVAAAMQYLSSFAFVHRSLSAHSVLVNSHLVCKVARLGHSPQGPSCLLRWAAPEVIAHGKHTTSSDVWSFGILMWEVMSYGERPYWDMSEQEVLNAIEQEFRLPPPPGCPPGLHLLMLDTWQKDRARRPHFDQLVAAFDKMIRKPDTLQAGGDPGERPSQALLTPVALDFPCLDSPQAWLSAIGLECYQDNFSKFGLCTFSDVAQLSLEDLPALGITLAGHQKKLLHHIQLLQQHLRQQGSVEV
T8 sequence (P23458 whole entry): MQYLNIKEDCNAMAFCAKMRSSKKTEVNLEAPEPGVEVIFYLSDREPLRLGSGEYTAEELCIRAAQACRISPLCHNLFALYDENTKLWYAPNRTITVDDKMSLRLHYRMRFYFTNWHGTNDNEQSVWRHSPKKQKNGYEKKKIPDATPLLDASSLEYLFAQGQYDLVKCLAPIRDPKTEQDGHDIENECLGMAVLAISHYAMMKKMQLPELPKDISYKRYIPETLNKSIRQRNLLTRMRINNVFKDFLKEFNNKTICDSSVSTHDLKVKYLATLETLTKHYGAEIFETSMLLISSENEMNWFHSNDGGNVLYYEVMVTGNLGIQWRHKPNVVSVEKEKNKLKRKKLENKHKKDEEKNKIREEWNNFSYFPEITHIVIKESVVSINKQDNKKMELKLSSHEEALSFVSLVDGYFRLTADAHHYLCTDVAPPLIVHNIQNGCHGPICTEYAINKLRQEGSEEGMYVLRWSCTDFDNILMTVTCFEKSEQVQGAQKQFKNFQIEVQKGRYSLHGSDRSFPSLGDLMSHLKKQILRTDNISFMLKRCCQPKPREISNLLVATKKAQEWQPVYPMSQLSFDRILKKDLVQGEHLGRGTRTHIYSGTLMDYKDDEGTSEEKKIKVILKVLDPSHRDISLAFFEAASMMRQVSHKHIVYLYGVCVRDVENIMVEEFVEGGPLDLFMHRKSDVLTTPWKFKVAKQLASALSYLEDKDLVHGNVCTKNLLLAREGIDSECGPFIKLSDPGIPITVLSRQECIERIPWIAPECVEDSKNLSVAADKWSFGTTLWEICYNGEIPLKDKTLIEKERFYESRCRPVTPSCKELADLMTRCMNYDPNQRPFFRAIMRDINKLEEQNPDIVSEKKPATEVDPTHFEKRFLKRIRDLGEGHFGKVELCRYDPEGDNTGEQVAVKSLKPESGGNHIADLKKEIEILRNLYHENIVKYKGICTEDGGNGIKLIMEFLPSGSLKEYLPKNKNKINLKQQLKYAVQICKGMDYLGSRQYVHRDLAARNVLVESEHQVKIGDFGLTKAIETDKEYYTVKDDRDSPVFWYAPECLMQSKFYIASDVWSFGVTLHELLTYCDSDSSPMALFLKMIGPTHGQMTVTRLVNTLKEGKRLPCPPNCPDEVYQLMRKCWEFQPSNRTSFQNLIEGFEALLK

In the case of `CCc1cc(O)c(F)cc1-c1cc(F)c2c(-c3nc4c([nH]3)CCN(C(=O)[C@]35C[C@H]3CCN5)C4)n[nH]c2c1` [Compound 1, (1S,5R)-2-azabicyclo[3.1.0]hexan-1-yl(2-(6-(2-ethyl-5-fluoro-4-hydroxyphenyl)-4-fluoro-1H-indazol-3-yl)-6,7-dihydro-3H-imidazo[4,5-c]pyridin-5(4H)-yl)methanone], in test [1], the IC50 was 200 nM. Besides, the inhibition at 1 µM in test [2] is 1%; in test [3], 83%; in test [5], 22%; in [6] it was 41%; in test [7] it was 47%; in test [8], 85%. In addition, in test [10], the inhibition at 1 µM came to 25%. In addition, the Ki in test [4] is 2.51 nM; in test [9] it was 0.126 nM.

Usually inhibition stands for the percentage by which the read-out fell short of the control.
